Laboratory results reported in patent US11247985B2, “Phenyl indole allosteric inhibitors of P97 ATPase” (University of Pittsburgh—Of the Commonwealth System of …, priority 2015, dated 2022).

biological target: p97 ATPase WT (Homo sapiens (Human), UniProt P55072); assay: p97 ADP-Glo assay; assay type: biochemical; details: Table 3; read-out: ADPGlo IC50
From the text: ADP-Glo™ (Promega Corp.) is a bioluminescent, homogeneous assay that measures ADP formed from a biochemical reactions. Because of its high sensitivity, the assay is suitable for monitoring enzyme activities at very early substrate conversions requiring very low amount of enzymes.
The ADP-Glo assay can be conducted as described in Chou, T.-F.; Bulfer, S. L.; Weihl, C.

Chain of p97 ATPase WT (P55072 whole entry): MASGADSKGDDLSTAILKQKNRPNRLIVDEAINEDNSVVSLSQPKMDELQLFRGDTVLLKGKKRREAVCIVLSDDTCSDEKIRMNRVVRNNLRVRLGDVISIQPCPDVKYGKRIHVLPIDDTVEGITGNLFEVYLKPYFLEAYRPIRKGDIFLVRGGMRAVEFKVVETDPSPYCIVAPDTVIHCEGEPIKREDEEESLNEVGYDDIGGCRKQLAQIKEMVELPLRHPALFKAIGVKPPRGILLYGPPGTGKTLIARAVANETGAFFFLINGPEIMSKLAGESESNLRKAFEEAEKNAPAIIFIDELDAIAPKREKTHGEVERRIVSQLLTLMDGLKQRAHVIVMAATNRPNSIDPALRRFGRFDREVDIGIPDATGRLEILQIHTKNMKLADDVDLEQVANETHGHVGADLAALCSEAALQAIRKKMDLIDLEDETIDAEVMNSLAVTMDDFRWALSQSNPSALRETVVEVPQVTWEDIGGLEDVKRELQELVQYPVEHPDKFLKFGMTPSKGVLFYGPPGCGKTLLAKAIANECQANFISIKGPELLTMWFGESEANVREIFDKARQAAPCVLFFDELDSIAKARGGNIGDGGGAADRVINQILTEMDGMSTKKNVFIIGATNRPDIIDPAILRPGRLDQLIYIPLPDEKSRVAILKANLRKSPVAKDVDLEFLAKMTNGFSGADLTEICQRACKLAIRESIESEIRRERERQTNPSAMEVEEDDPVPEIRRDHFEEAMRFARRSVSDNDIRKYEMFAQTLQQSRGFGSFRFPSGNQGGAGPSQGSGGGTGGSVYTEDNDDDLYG

Row | SMILES | IC50
1 | COC(=O)c1ccc2[nH]c(-c3cccc(N4CCC(NC5CCN(C(C)C)CC5)CC4)c3)cc2c1 | 510 nM
2 | CN1CCC(NC2CCN(c3cccc(-c4cc5ccccc5[nH]4)c3)CC2)CC1 | 380 nM
3 | CCN(CC)C(=O)CCNC1CCN(c2cccc(-c3cc4cc(F)ccc4[nH]3)c2)CC1 | 670 nM
4 | CN1CCN(CCNC2CCN(c3cccc(-c4cc5ccccc5[nH]4)c3)CC2)CC1 | 380 nM
5 | c1ccc(CN2CCN(CCNC3CCN(c4cccc(-c5cc6ccccc6[nH]5)c4)CC3)CC2)cc1 | 300 nM
6 | CC1CCN(CCNC2CCN(c3cccc(-c4cc5ccccc5[nH]4)c3)CC2)CC1 | 800 nM
7 | Cn1ncnc1CCNC1CCN(c2cccc(-c3cc4cc(C#N)ccc4[nH]3)c2)CC1 | 890 nM
8 | c1cncc(CNC2CCN(c3cccc(-c4cc5ccccc5[nH]4)c3)CC2)c1 | 740 nM
9 | c1ccc(CNC2CCN(c3cccc(-c4cc5ccccc5[nH]4)c3)CC2)cc1 | 960 nM
10 | CC(C)(C)OC(=O)N1CCCN(CCNC2CCN(c3cccc(-c4cc5ccccc5[nH]4)c3)CC2)CC1 | 1100 nM
11 | CN(C)CCNC1CCN(c2cccc(-c3cc4ccccc4[nH]3)c2)CC1 | 570 nM
12 | Cc1ccc(CNC2CCN(c3cccc(-c4cc5ccccc5[nH]4)c3)CC2)o1 | 890 nM
13 | c1cc(-c2cc3ccccc3[nH]2)cc(N2CCC(NCCN3CCOCC3)CC2)c1 | 910 nM
14 | CN1[C@@H]2CCC[C@H]1C[C@@H](NC1CCN(c3cccc(-c4cc5ccccc5[nH]4)c3)CC1)C2 | 1300 nM
15 | c1cc(-c2cc3ccccc3[nH]2)cc(N2CCC(NCc3ccncc3)CC2)c1 | 1400 nM
16 | CC(C)N1CCN(CCNC2CCN(c3cccc(NC(=O)OCc4ccccc4)c3)CC2)CC1 | 1700 nM
17 | CON(C)C(=O)c1ccc2[nH]c(-c3cccc(N4CCC(NCCN5CCN(C(C)C)CC5)CC4)c3)cc2c1 | 16000 nM
18 | CC(C)N1CCN(CCNC2CCN(c3cccc(-c4cc5cc(F)c(F)cc5[nH]4)c3)CC2)CC1 | 330 nM
19 | CC(C)N1CCN(CCNC2CCN(c3cccc(-c4cc5cc(S(F)(F)(F)(F)F)ccc5[nH]4)c3)CC2)CC1 | 21000 nM
20 | Cc1c(-c2cccc(N3CCC(NC4CCN(C)CC4)CC3)c2)[nH]c2ccccc12 | 22000 nM
21 | CC(C)N1CCN(CCNC2CCN(c3ccc(F)c(-c4cc5ccccc5[nH]4)c3)CC2)CC1 | 410 nM
22 | N#Cc1ccc2[nH]c(-c3cccc(N4CCC(NCc5ccccc5)CC4)c3)cc2c1 | 430 nM
23 | Cc1ccc(N2CCC(NCCN3CCN(C(C)C)CC3)CC2)cc1-c1[nH]c2ccccc2c1C | 23000 nM
24 | CNC(=O)c1ccc2[nH]c(-c3cccc(N4CCC(NCCN5CCN(C(C)C)CC5)CC4)c3)cc2c1 | 430 nM
25 | CC(C)N1CCN(CCNC2CCN(c3cccc(-c4cc5cc([N+](=O)[O-])ccc5[nH]4)c3)CC2)CC1 [drawing 222] | 36 nM
26 | CC(C)N1CCC(NC2CCN(c3cccc(-c4cc5cc(C#N)ccc5[nH]4)c3)CC2)CC1 [drawing 226] | 47 nM

The remaining lines, values ahead:

Row | IC50 | SMILES
27 | 25000 nM | CN1CCC(NC2CCN(c3cncc(-c4cc5ccccc5[nH]4)c3)CC2)CC1
28 | 24000 nM | CC(C)N1CCN(CCNC2CCN(c3cccc(-c4cc5ccccc5s4)c3)CC2)CC1
29 | 23000 nM | Cc1ncncc1NC(=O)c1cccc(N2CCC(NCCN3CCN(C(C)C)CC3)CC2)c1
30 | 20000 nM | CC(C)N1CCN(CCNC2CCN(c3cccc(-c4cc5ccccc5o4)c3)CC2)CC1
31 | 20000 nM | CC(C)N1CCC(NC2CCN(c3cccc(-c4cc5cc(S(C)(=O)=O)ccc5[nH]4)c3)CC2)CC1
32 | 17000 nM | FC(F)(F)C(c1ccccc1)N1CCN(CCNC2CCN(c3cccc(-c4cc5ccccc5[nH]4)c3)CC2)CC1 (centres unmarked)
33 | 16000 nM | CN1CCN(C2(CNC3CCN(c4cccc(-c5cc6cc(S(C)(=O)=O)ccc6[nH]5)c4)CC3)CCC2)CC1
34 | 15800 nM | CC(C)N1CCC(NC2CCN(c3nnc(-c4cc5cc(F)ccc5[nH]4)o3)CC2)CC1
35 | 13000 nM | CN1CCN(C2CCN(c3cccc(-c4cc5ccccc5[nH]4)c3)CC2)CC1
36 | 4900 nM | CC(C)N1CCC(NC2CCN(c3cccc(-c4cc5cc(C#N)ccc5[nH]4)c3)CC2)CC1 [drawing 239]
37 | 2700 nM | c1ccc(CCNC2CCN(c3cccc(-c4cc5ccccc5[nH]4)c3)CC2)cc1
38 | 1700 nM | CCCCNC1CCN(c2cccc(-c3cc4ccccc4[nH]3)c2)CC1
39 | 1400 nM | O=C(CCNC1CCN(c2cccc(-c3cc4cc(F)ccc4[nH]3)c2)CC1)N1CCCCC1
40 | 1300 nM | FC(F)(F)CN1CCN(CCNC2CCN(c3cccc(-c4cc5ccccc5[nH]4)c3)CC2)CC1
41 | 1300 nM | CC(C)N1CCN(CCNC2CCN(c3cccc(-c4cc5c(F)cccc5[nH]4)c3)CC2)CC1
42 | 1300 nM | Cn1ncnc1CCNC1CCN(c2cccc(-c3cc4cc(F)ccc4[nH]3)c2)CC1
43 | 1300 nM | COC(=O)CCNC1CCN(c2cccc(-c3cc4cc(F)ccc4[nH]3)c2)CC1
44 | 1000 nM | COC(=O)CCNC1CCN(c2cccc(-c3cc4ccccc4[nH]3)c2)CC1
45 | 1000 nM | c1ccc(CNC2CCN(c3cccc(-c4cc5ccccc5[nH]4)c3)CC2)nc1
46 | 880 nM | c1cc(-c2cc3ccccc3[nH]2)cc(N2CCC(NCCN3CCCC3)CC2)c1

Row | IC50 | SMILES
47 | 850 nM | O=C1CN(CCNC2CCN(c3cccc(-c4cc5ccccc5[nH]4)c3)CC2)CCN1
48 | 810 nM | Cn1ncnc1CCNC1CCN(c2cccc(-c3cc4ccccc4[nH]3)c2)CC1
49 | 800 nM | c1cc(-c2cc3ccccc3[nH]2)cc(N2CCC(NCCCN3CCOCC3)CC2)c1
50 | 760 nM | NC(=O)CCNC1CCN(c2cccc(-c3cc4cc(F)ccc4[nH]3)c2)CC1
51 | 720 nM | c1ccc(CCNC2CCN(c3cccc(-c4cc5ccccc5[nH]4)c3)CC2)nc1
52 | 710 nM | CN(C)CCNC1CCN(c2cccc(-c3cc4cc(F)ccc4[nH]3)c2)CC1
53 | 700 nM | O=S1(=O)CCN(CCNC2CCN(c3cccc(-c4cc5ccccc5[nH]4)c3)CC2)CC1
54 | 680 nM | [N-]=[N+]=Nc1cccc(CNC2CCN(c3cccc(-c4cc5cc(F)ccc5[nH]4)c3)CC2)c1
55 | 500 nM | Cc1ccc(N2CCC(NC3CCN(C(C)C)CC3)CC2)cc1-c1cc2ccccc2[nH]1
56 | 460 nM | CN(C)CCNC1CCN(c2cccc(-c3cc4cc(C#N)ccc4[nH]3)c2)CC1
57 | 450 nM | CN1CCN(C(C)(C)CNC2CCN(c3cccc(-c4cc5ccccc5[nH]4)c3)CC2)CC1
58 | 440 nM | CN1CCN(CC2(NC3CCN(c4cccc(-c5cc6ccccc6[nH]5)c4)CC3)CC2)CC1
59 | 370 nM | CC(C)N1CCN(CCNC2CCN(c3ccc4c(c3)-c3[nH]c5ccccc5c3CC4)CC2)CC1
60 | 370 nM | CC(C)N1CCN(CCCNC2CCN(c3cccc(-c4cc5ccccc5[nH]4)c3)CC2)CC1
61 | 350 nM | Cc1ccc(N2CCC(NC3CCN(C)CC3)CC2)cc1-c1cc2ccccc2[nH]1
62 | 340 nM | Fc1ccc2[nH]c(-c3cccc(N4CCC(NCc5cccnc5)CC4)c3)cc2c1
63 | 320 nM | c1cc(-c2cc3ccccc3[nH]2)cc(N2CCC(NCCN3CCCNCC3)CC2)c1
64 | 320 nM | CN1CCN(C(=O)CCNC2CCN(c3cccc(-c4cc5cc(C#N)ccc5[nH]4)c3)CC2)CC1
65 | 320 nM | Cc1ccc(N2CCC(NCC3(N4CCN(C(C)C)CC4)CCC3)CC2)cc1-c1cc2cc(F)ccc2[nH]1
66 | 190 nM | CCN1CCN(CCNC2CCN(c3cccc(-c4cc5ccccc5[nH]4)c3)CC2)CC1

same assay, conditions: p97 ADP-Glo assay, differ from Table 2; read-out: ADP-Glo IC50

Row | SMILES | IC50
67 | CC(C)N1CCN(CCNC2CCN(c3cccc(-c4cc5cc([N+](=O)[O-])ccc5[nH]4)c3)CC2)CC1 [Compound 23, N-(2-(4-Isopropylpiperazin-1-yl)ethyl)-1-(3-(5-nitro-1H-indol-2-yl)phenyl)piperidin-4-amine] | 40 ± 40 nM

same assay, conditions: p97 ADP-Glo assay; read-out: inhibitor of the AAA ATPase (potency in words)

Row | SMILES | IC50
68 | CC(C)N1CCN(CCNC2CCN(c3cccc(-c4cc5cc([N+](=O)[O-])ccc5[nH]4)c3)CC2)CC1 [Compound 23, N-(2-(4-Isopropylpiperazin-1-yl)ethyl)-1-(3-(5-nitro-1H-indol-2-yl)phenyl)piperidin-4-amine] | 40 nM
